According to ChEMBL document CHEMBL1201862, “PubChem BioAssay data set” (2004):
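Values below derive from 48-hour exposures of cells grown in 96-well plates, with endpoints linearly interpolated between the two concentrations bracketing the appropriate inhibition level. The concentration for 50% growth inhibition is given as GI50.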 Activity calls are given as the source filed them. No stated cut-off is given here; in the data, active = GI50 up to about 1.1 µM and inactive = higher.

Assays:
Test in all cases: NCI tumour cell line growth inhibition, 48 h
SK-MEL-2 = tested on: SK-MEL-2
UO-31 = tested on: UO-31
UACC-257 = tested on: UACC-257
CCRF-CEM = tested on: CCRF-CEM
HOP-62 = tested on: HOP-62
NCI-H23 = tested on: NCI-H23
OVCAR-4 = tested on: OVCAR-4
OVCAR-8 = tested on: OVCAR-8
Malme-3M = tested on: Malme-3M
SN12C = tested on: SN12C
DLD-1 = tested on: DLD-1
COLO 205 = tested on: COLO 205
DMS-114 = tested on: DMS-114
CAKI-1 = tested on: CAKI-1
RXF 393 = tested on: RXF 393
SF-268 = tested on: SF-268
TK-10 = tested on: TK-10
SF-295 = tested on: SF-295
NCI-H522 = tested on: NCI-H522
HT-29 = tested on: HT-29
SW-620 = tested on: SW-620
OVCAR-3 = tested on: OVCAR-3
SNB-75 = tested on: SNB-75
A549 = tested on: A549
KM12 = tested on: KM12
IGROV-1 = tested on: IGROV-1
SK-MEL-28 = tested on: SK-MEL-28
U-251 = tested on: U-251
NCI-H460 = tested on: NCI-H460
K562 = tested on: K562
SK-OV-3 = tested on: SK-OV-3
HOP-18 = tested on: HOP-18
HL-60 = tested on: HL-60
MOLT-4 = tested on: MOLT-4
DMS-273 = tested on: DMS-273
LOX IMVI = tested on: LOX IMVI
786-0 = tested on: 786-0
RXF 631 = tested on: RXF 631
RPMI-8226 = tested on: RPMI-8226
ACHN = tested on: ACHN
HCT-15 = tested on: HCT-15
OVCAR-5 = tested on: OVCAR-5
M14 = tested on: M14
M19-MEL = tested on: M19-MEL
HCC 2998 = tested on: HCC 2998
HOP-92 = tested on: HOP-92
EKVX = tested on: EKVX
KM-20L2 = tested on: KM-20L2
SK-MEL-5 = tested on: SK-MEL-5
UACC-62 = tested on: UACC-62
LXFL 529 = tested on: LXFL 529
SF-539 = tested on: SF-539
A498 = tested on: A498
SNB-19 = tested on: SNB-19
SNB-78 = tested on: SNB-78
HCT-116 = tested on: HCT-116
SR = tested on: SR
NCI-H226 = tested on: NCI-H226

## OC1c2ccccc2C2C(O)c3ccccc3C12 (stereo not drawn)
SK-MEL-2
  GI50: > 100 µM (inactive)
UO-31
  GI50: > 100 µM (inactive)
UACC-257
  GI50: > 100 µM (inactive)
CCRF-CEM
  GI50: > 100 µM (inactive)
HOP-62
  GI50: > 100 µM (inactive)
NCI-H23
  GI50: > 100 µM (inactive)
OVCAR-4
  GI50: > 100 µM (inactive)
OVCAR-8
  GI50: > 100 µM (inactive)
Malme-3M
  GI50: > 100 µM (inactive)
SN12C
  GI50: > 100 µM (inactive)
DLD-1
  GI50: > 100 µM (inactive)
COLO 205
  GI50: > 100 µM (inactive)
DMS-114
  GI50: > 100 µM (inactive)
CAKI-1
  GI50: > 100 µM (inactive)
RXF 393
  GI50: > 100 µM (inactive)
SF-268
  GI50: > 100 µM (inactive)
TK-10
  GI50: > 100 µM (inactive)
SF-295
  GI50: > 100 µM (inactive)
NCI-H522
  GI50: > 100 µM (inactive)
HT-29
  GI50: > 100 µM (inactive)
SW-620
  GI50: > 100 µM (inactive)
OVCAR-3
  GI50: > 100 µM (inactive)
SNB-75
  GI50: 89.5 µM (inactive)
A549
  GI50: > 100 µM (inactive)
KM12
  GI50: > 100 µM (inactive)
IGROV-1
  GI50: > 100 µM (inactive)
SK-MEL-28
  GI50: > 100 µM (inactive)
U-251
  GI50: > 100 µM (inactive)
NCI-H460
  GI50: > 100 µM (inactive)
K562
  GI50: > 100 µM (inactive)
SK-OV-3
  GI50: > 100 µM (inactive)
HOP-18
  GI50: > 100 µM (inactive)
HL-60
  GI50: > 100 µM (inactive)
MOLT-4
  GI50: > 100 µM (inactive)
DMS-273
  GI50: > 100 µM (inactive)
LOX IMVI
  GI50: > 100 µM (inactive)
786-0
  GI50: > 100 µM (inactive)
RXF 631
  GI50: > 100 µM (inactive)
RPMI-8226
  GI50: > 100 µM (inactive)
ACHN
  GI50: > 100 µM (inactive)
HCT-15
  GI50: > 100 µM
OVCAR-5
  GI50: > 100 µM (inactive)
M14
  GI50: > 100 µM (inactive)
M19-MEL
  GI50: > 100 µM (inactive)
HCC 2998
  GI50: > 100 µM (inactive)
HOP-92
  GI50: > 100 µM (inactive)
EKVX
  GI50: > 100 µM (inactive)
KM-20L2
  GI50: > 100 µM (inactive)
SK-MEL-5
  GI50: > 100 µM (inactive)
UACC-62
  GI50: > 100 µM (inactive)
LXFL 529
  GI50: > 100 µM (inactive)
SF-539
  GI50: > 100 µM (inactive)

## COc1c(OC(C)=O)ccc(/C=C2\N=C(C)OC2=O)c1[N+](=O)[O-]
SK-MEL-2
  GI50: > 100 µM (inactive)
UO-31
  GI50: > 100 µM (inactive)
UACC-257
  GI50: > 100 µM (inactive)
A498
  GI50: > 100 µM (inactive)
CCRF-CEM
  GI50: > 100 µM (inactive)
HOP-62
  GI50: > 100 µM (inactive)
OVCAR-4
  GI50: > 100 µM (inactive)
OVCAR-8
  GI50: > 100 µM (inactive)
Malme-3M
  GI50: > 100 µM (inactive)
SN12C
  GI50: > 100 µM (inactive)
DLD-1
  GI50: > 100 µM (inactive)
COLO 205
  GI50: > 100 µM (inactive)
CAKI-1
  GI50: > 100 µM (inactive)
RXF 393
  GI50: > 100 µM (inactive)
SF-268
  GI50: > 100 µM (inactive)
TK-10
  GI50: > 100 µM (inactive)
SF-295
  GI50: > 100 µM (inactive)
NCI-H522
  GI50: > 100 µM (inactive)
SNB-19
  GI50: > 100 µM (inactive)
HT-29
  GI50: > 100 µM (inactive)
SW-620
  GI50: > 100 µM (inactive)
SNB-75
  GI50: 91.6 µM (inactive)
SNB-78
  GI50: > 100 µM (inactive)
HCT-116
  GI50: > 100 µM (inactive)
A549
  GI50: > 100 µM (inactive)
KM12
  GI50: > 100 µM (inactive)
IGROV-1
  GI50: > 100 µM (inactive)
U-251
  GI50: > 100 µM (inactive)
NCI-H460
  GI50: > 100 µM (inactive)
SR
  GI50: > 100 µM (inactive)
K562
  GI50: > 100 µM (inactive)
SK-OV-3
  GI50: > 100 µM (inactive)
HOP-18
  GI50: > 100 µM (inactive)
HL-60
  GI50: > 100 µM (inactive)
MOLT-4
  GI50: > 100 µM (inactive)
DMS-273
  GI50: > 100 µM (inactive)
LOX IMVI
  GI50: > 100 µM (inactive)
786-0
  GI50: > 100 µM (inactive)
RXF 631
  GI50: > 100 µM (inactive)
RPMI-8226
  GI50: > 100 µM (inactive)
ACHN
  GI50: > 100 µM (inactive)
HCT-15
  GI50: > 100 µM
OVCAR-5
  GI50: > 100 µM (inactive)
M14
  GI50: > 100 µM (inactive)
M19-MEL
  GI50: > 100 µM (inactive)
HCC 2998
  GI50: > 100 µM (inactive)
HOP-92
  GI50: > 100 µM (inactive)
KM-20L2
  GI50: > 100 µM (inactive)
SK-MEL-5
  GI50: > 100 µM (inactive)
UACC-62
  GI50: > 100 µM (inactive)
LXFL 529
  GI50: > 100 µM (inactive)
SF-539
  GI50: > 100 µM (inactive)

## N=CCCN(CCC=N)c1ccc(/C=C2\CN(NC(=O)c3ccc(Cl)cc3)C(c3ccccc3)=N2)cc1
SK-MEL-2
  GI50: > 100 µM (inactive)
UO-31
  GI50: > 100 µM (inactive)
UACC-257
  GI50: > 100 µM (inactive)
A498
  GI50: > 100 µM (inactive)
CCRF-CEM
  GI50: > 100 µM (inactive)
HOP-62
  GI50: > 100 µM (inactive)
NCI-H23
  GI50: > 100 µM (inactive)
OVCAR-4
  GI50: > 100 µM (inactive)
OVCAR-8
  GI50: > 100 µM (inactive)
NCI-H226
  GI50: > 100 µM (inactive)
Malme-3M
  GI50: > 100 µM (inactive)
SN12C
  GI50: > 100 µM (inactive)
DLD-1
  GI50: > 100 µM (inactive)
COLO 205
  GI50: > 100 µM (inactive)
DMS-114
  GI50: > 100 µM (inactive)
CAKI-1
  GI50: > 100 µM (inactive)
SF-268
  GI50: > 100 µM (inactive)
TK-10
  GI50: > 100 µM (inactive)
SF-295
  GI50: > 100 µM (inactive)
SNB-19
  GI50: > 100 µM (inactive)
HT-29
  GI50: > 100 µM (inactive)
SW-620
  GI50: 15.6 µM (inactive)
OVCAR-3
  GI50: > 100 µM (inactive)
SNB-75
  GI50: > 100 µM (inactive)
SNB-78
  GI50: > 100 µM (inactive)
HCT-116
  GI50: > 100 µM (inactive)
A549
  GI50: > 100 µM (inactive)
KM12
  GI50: > 100 µM (inactive)
IGROV-1
  GI50: > 100 µM (inactive)
SK-MEL-28
  GI50: > 100 µM (inactive)
U-251
  GI50: 25.8 µM (inactive)
NCI-H460
  GI50: > 100 µM (inactive)
K562
  GI50: > 100 µM (inactive)
SK-OV-3
  GI50: > 100 µM (inactive)
HOP-18
  GI50: > 100 µM (inactive)
HL-60
  GI50: > 100 µM (inactive)
MOLT-4
  GI50: > 100 µM (inactive)
DMS-273
  GI50: > 100 µM (inactive)
LOX IMVI
  GI50: 75 µM (inactive)
786-0
  GI50: 90.2 µM (inactive)
RXF 631
  GI50: > 100 µM (inactive)
RPMI-8226
  GI50: 26.4 µM (inactive)
ACHN
  GI50: > 100 µM (inactive)
HCT-15
  GI50: > 100 µM
OVCAR-5
  GI50: > 100 µM (inactive)
M14
  GI50: > 100 µM (inactive)
HCC 2998
  GI50: > 100 µM (inactive)
HOP-92
  GI50: > 100 µM (inactive)
EKVX
  GI50: > 100 µM (inactive)
KM-20L2
  GI50: > 100 µM (inactive)
SK-MEL-5
  GI50: > 100 µM (inactive)
UACC-62
  GI50: > 100 µM (inactive)
LXFL 529
  GI50: > 100 µM (inactive)
SF-539
  GI50: > 100 µM (inactive)
